Laboratory results: US10660877B2 (BRISTOL-MYERS SQUIBB COMPANY, priority 2016, dated 2020)
pIC50: −log10 of the molar value. Where two headings read alike, the source gives them in different places.

Key:
human TLR7 = human TLR7 (Homo sapiens (Human), UniProt Q9NYK1); assay: TLR7 inhibition reporter assay (HEK-Blue cells, SEAP reporter, gardiquimod stimulation); assay type: cell-based
human TLR8 = human TLR8 (Homo sapiens (Human), UniProt Q9NR97); assay: TLR8 inhibition reporter assay (HEK-Blue cells, SEAP reporter, R848 stimulation);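 further: compounds tested from 0.05 nM to 50 µM, 22 h at 37 °C, SEAP measured with HEK-Blue Detection, inhibition relative to agonist plus DMSO versus a known inhibitor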
human TLR9 = human TLR9 (Homo sapiens (Human), UniProt Q9NR96); assay: TLR9 inhibition reporter assay (HEK-Blue cells, SEAP reporter, ODN2006 stimulation);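 further: compounds tested over 0.05 nM to 50 µM, 22 h incubation, inhibition taken as SEAP signal drop from agonist plus DMSO wells toward a known inhibitor control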
[1] = HEK-Blue cells overexpressing human TLR7, gardiquimod 7.5 μM
[2] = read-out: TLR8 IC50, HEK-Blue cells overexpressing human TLR8, R848 15.9 μM
[3] = read-out: TLR9 IC50, HEK-Blue cells overexpressing human TLR9, ODN2006 5 nM

Sequence of human TLR8 (Q9NR97 27-1041): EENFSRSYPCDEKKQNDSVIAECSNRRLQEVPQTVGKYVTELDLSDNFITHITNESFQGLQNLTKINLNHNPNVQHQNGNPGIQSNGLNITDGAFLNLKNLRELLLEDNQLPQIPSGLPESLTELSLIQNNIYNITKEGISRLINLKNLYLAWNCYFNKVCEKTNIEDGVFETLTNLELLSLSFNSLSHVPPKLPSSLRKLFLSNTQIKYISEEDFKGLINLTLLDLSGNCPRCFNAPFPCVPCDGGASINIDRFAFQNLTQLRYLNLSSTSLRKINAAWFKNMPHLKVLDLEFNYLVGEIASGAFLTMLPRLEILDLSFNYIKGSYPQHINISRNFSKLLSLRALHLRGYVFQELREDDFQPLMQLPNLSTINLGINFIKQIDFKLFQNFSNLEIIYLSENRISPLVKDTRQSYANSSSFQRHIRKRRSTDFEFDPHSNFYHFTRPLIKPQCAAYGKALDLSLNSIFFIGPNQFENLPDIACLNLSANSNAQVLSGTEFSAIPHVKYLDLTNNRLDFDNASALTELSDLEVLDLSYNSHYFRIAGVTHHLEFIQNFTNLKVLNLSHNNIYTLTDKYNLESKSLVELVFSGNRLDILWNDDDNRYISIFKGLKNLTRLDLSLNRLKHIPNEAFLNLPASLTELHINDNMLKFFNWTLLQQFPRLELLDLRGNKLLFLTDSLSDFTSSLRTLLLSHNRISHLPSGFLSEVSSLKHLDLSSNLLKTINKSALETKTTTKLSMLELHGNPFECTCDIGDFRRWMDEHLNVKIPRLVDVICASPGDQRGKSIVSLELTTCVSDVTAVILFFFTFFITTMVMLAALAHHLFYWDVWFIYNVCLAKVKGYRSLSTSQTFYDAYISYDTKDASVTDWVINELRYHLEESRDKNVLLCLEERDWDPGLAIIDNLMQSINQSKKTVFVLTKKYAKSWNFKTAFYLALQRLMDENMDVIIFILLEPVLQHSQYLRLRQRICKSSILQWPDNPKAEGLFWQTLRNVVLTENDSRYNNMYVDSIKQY
Sequence of human TLR7 (Q9NYK1 27-1049): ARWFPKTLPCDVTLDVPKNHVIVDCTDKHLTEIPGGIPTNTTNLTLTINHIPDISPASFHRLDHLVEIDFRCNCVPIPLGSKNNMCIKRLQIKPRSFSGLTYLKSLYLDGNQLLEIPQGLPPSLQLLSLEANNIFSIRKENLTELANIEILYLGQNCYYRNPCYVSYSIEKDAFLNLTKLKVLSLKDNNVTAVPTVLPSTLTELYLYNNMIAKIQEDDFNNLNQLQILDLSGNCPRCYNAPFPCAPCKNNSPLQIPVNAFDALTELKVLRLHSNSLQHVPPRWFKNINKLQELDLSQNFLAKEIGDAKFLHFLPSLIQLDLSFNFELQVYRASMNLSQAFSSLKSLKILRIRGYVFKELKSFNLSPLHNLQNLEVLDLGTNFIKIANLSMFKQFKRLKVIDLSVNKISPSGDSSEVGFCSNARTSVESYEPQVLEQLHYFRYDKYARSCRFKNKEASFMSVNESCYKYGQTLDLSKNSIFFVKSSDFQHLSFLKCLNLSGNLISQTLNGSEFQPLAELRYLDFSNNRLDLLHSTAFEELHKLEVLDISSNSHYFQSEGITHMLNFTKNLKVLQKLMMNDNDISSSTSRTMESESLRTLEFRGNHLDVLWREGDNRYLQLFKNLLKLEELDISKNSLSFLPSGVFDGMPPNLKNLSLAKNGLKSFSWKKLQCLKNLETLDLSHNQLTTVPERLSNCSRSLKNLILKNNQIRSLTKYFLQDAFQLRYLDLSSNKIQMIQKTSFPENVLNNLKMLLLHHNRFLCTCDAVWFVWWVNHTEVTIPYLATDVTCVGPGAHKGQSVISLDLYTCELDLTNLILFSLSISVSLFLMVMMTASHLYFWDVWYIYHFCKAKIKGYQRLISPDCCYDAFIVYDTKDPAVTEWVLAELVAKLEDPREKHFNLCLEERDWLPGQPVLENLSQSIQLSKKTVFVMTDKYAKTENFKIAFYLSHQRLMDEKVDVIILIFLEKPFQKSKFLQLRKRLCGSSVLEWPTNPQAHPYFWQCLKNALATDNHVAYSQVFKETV
Sequence of human TLR9 (Q9NR96 26-1032): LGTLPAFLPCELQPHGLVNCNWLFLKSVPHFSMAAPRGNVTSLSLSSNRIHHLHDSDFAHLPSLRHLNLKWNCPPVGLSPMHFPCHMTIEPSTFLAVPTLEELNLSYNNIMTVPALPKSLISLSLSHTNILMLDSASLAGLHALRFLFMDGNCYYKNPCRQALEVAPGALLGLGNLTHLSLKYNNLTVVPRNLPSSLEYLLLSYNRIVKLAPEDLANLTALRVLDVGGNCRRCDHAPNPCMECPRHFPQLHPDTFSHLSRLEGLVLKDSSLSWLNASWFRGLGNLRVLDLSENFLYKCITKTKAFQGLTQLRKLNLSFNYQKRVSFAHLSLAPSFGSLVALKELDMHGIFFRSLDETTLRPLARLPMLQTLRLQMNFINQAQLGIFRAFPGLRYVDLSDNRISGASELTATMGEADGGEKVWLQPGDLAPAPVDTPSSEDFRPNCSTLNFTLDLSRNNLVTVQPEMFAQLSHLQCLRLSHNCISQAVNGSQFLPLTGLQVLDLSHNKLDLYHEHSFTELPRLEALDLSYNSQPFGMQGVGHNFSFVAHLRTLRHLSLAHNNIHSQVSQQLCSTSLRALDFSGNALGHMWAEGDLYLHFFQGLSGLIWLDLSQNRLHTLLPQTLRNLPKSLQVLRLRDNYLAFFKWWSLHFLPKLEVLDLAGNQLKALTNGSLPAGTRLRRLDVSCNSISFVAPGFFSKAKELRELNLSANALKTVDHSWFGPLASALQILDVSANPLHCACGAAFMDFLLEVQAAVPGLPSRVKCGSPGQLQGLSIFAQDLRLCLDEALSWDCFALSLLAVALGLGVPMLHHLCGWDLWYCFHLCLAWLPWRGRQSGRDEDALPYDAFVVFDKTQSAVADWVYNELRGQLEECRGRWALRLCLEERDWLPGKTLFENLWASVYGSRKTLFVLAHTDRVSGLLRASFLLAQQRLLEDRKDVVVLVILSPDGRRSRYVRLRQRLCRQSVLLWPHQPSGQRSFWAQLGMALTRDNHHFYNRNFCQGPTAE

Structure (SMILES) | pIC50 (human TLR7; [1]) | pIC50 (human TLR8; [2]) | pIC50 (human TLR9; [3]) | pIC50 (human TLR7; HEK-Blue cells, gardiquimod 7.5 μM) | pIC50 (human TLR8; read-out: TLR8 IC50, HEK-Blue cells, R848 15.9 μM) | pIC50 (human TLR9; read-out: TLR9 IC50, HEK-Blue cells, ODN2006 5 nM) | pIC50 (human TLR8; TLR8 IC50, HEK-Blue cells overexpressing human TLR8, R848 15.9 μM) | pIC50 (human TLR9; TLR9 IC50, HEK-Blue cells overexpressing human TLR9, ODN2006 5 nM)
Cc1cc(-c2[nH]c3ccc(C4CCN(CC5COC5)CC4)cc3c2C(C)C)c(F)cn1 [Example 650, 2-(5-fluoro-2-methylpyridin-4-yl)-3-isopropyl-5-(1-(oxetan-3-ylmethyl)piperidin-4-yl)-1H-indole] | 8.33 | 8.74 | 5.47 |  |  |  |  | 
CNCC(=O)N1CCC(c2ccc3[nH]c(-c4cc(C)nc(C)c4F)c(C(C)C)c3c2)CC1 [Example 622, 1-(4-(2-(3-fluoro-2,6-dimethylpyridin-4-yl)-3-isopropyl-1H-indol-5-yl)piperidin-1-yl)-2-(methylamino)ethan-1-one] | 8.92 | 8.21 | 5.40 |  |  |  |  | 
CC(C)c1c(-c2c(Cl)cncc2Cl)[nH]c2ccc(C3CCNCC3)cc12 [Example 20, 2-(3,5-dichloropyridin-4-yl)-3-isopropyl-5-(piperidin-4-yl)-1H-indole] | 5.78 | 6.89 | 5.11 |  |  |  |  | 
Cc1cc(-c2[nH]c3ccc(C4CCN(CC5CCCCC5)CC4)cc3c2C(C)C)ccn1 [Example 868, 5-(1-(cyclohexylmethyl)piperidin-4-yl)-3-isopropyl-2-(2-methylpyridin-4-yl)-1H-indole] |  |  |  | 7.27 | 7.47 | 6.03 |  | 
CC(C)c1c(-c2cc(F)ncc2Cl)[nH]c2ccc(C3CCNCC3)cc12 [Example 18, 2-(5-chloro-2-fluoropyridin-4-yl)-3-isopropyl-5-(piperidin-4-yl)-1H-indole] | 6.75 | 7.33 | 5.20 |  |  |  |  | 
Cc1cc(-c2[nH]c3ccc(C4CCN(CC(=O)N5CCS(=O)(=O)CC5)CC4)cc3c2C(C)C)cc(C)n1 [Example 281, 2-(4-(2-(2,6-dimethylpyridin-4-yl)-3-isopropyl-1H-indol-5-yl)piperidin-1-yl)-1-(1,1-dioxidothiomorpholino)ethan-1-one] | 8.92 | 8.70 | 6.89 |  |  |  |  | 
Cc1cc(-c2[nH]c3ccc(C4CCN(C(=O)C5CC(=O)N(C)C5)CC4)cc3c2C(C)C)ccn1 (stereo not drawn) [Example 566, 4-(4-(3-isopropyl-2-(2-methylpyridin-4-yl)-1H-indol-5-yl)piperidine-1-carbonyl)-1-methylpyrrolidin-2-one] | 7.10 | 6.93 | < 4.30 |  |  |  |  | 
Cc1cc(-c2[nH]c3ccc(C4CCN(C(=O)OCC(C)C)CC4)cc3c2C(C)C)ccn1 [Example 558, isobutyl 4-(3-isopropyl-2-(2-methylpyridin-4-yl)-1H-indol-5-yl)piperidine-1-carboxylate] | 5.47 | 5.73 | 4.82 |  |  |  |  | 
Cc1cc(-c2[nH]c3ccc(C4CCNCC4)cc3c2C(C)C)c(F)c(C)n1 [Example 51, 2-(3-fluoro-2,6-dimethylpyridin-4-yl)-3-isopropyl-5-(piperidin-4-yl)-1H-indole] | 9.00 | 8.60 | 6.11 |  |  |  |  | 
COC[C@@H]1CCCN1C(=O)CN1CCC(c2ccc3[nH]c(-c4cc(C)nc(C)c4)c(C(C)C)c3c2)CC1 [Example 263, (S)-2-(4-(2-(2,6-dimethylpyridin-4-yl)-3-isopropyl-1H-indol-5-yl)piperidin-1-yl)-1-(2-(methoxymethyl)pyrrolidin-1-yl)ethan-1-one] | 8.43 | 7.87 | 6.55 |  |  |  |  | 
CCc1c(-c2ccnc(OC)c2)[nH]c2ccc(C3CCN(C4CCN(C(C)C)CC4)CC3)cc12 [Example 786, 3-ethyl-5-(1′-isopropyl-[1,4′-bipiperidin]-4-yl)-2-(2-methoxypyridin-4-yl)-1H-indole] | 6.51 | 7.30 | 6.69 |  |  |  |  | 
CCOCCNC(=O)CN1CCC(c2ccc3[nH]c(-c4cc(C)nc(C)c4)c(C(C)C)c3c2)CC1 [Example 240, 2-(4-(2-(2,6-dimethylpyridin-4-yl)-3-isopropyl-1H-indol-5-yl)piperidin-1-yl)-N-(2-ethoxyethyl)acetamide] | 8.08 |  |  |  |  |  | 8.10 | 5.96
